# From EPA's ToxValDB 9.5 (doi:10.2903/j.efsa.2018.5140)
# Several values for one entry are separate records, joined by “and”; a condition that tells them apart may be missing. Equal entries are not always repeated.
# Tests used:
# Colinus virginianus = conditions: for LD50: acute, oral, mortality
# Aphidius rhopalosiphi = assay: LR50; higher = less toxic; conditions: acute; mortality
# Pimephales promelas = conditions: chronic/long-term; duration: 28 days
# Apis mellifera = conditions: acute, mortality
# Neomysis kadiakensis = conditions: chronic/long-term; duration: 28 days; reproduction
# Canidae = conditions: oral, Dog Other, hematological
# Oncorhynchus mykiss = conditions: acute; duration: 96 hours; mortality
# Folsomia candida = conditions: chronic/long-term; duration: 28 days; reproduction
smiles,measurement,setting,value
COC(=O)[C@@]12Cc3cc(Cl)ccc3C1=NN(C(=O)Nc1ccc(OC(F)(F)F)cc1)CO2,LD50,Colinus virginianus,1750 mg/kg
same,LC50,"Rattus norvegicus; acute, M, mortality",52 mg/kg
same,LD50,"Rattus norvegicus; acute, oral, F, mortality",39 mg/kg
COC(=O)N(C(=O)N1CO[C@@]2(C(=O)OC)Cc3cc(Cl)ccc3C2=N1)c1ccc(OC(F)(F)F)cc1 [Indoxacarb],LR50,Aphidius rhopalosiphi,5.1 g/ha
same,NOEC,Pimephales promelas,0.0675 mg/L
same,LD50,Apis mellifera; dermal,0.0682 µg/piece
same,LD50,"Apis mellifera; oral, unspecified",0.232 µg/piece
same,NOEC,Neomysis kadiakensis,0.0138 mg/L
same,LOAEL,"Canidae; chronic, duration: 1 years",1.1 mg/kg-day
same,LOAEL,"Canidae; subchronic, duration: 90 days",1 mg/kg-day
same,LC50,Oncorhynchus mykiss,> 0.17 µg/mL
same,LD50,Colinus virginianus,73.5 mg/kg-day
same,NOAEL,Colinus virginianus; reproduction developmental,56.8 mg/kg-day
same,LD50,"Rattus norvegicus; acute, oral, mortality",146 mg/kg-day
same,NOAEL,Rattus norvegicus; chronic,0.6 mg/kg-day
same,NOAEL,"Rattus norvegicus; chronic, duration: 2 years, hematological",1.04 mg/kg-day
same,NOAEL,"Rattus norvegicus; reproduction developmental, body weight",0.5 mg/kg-day
same,NOAEL,"Rattus norvegicus; subchronic, duration: 90 days, oral, hematological",0.68 mg/kg-day and 0.99 mg/kg-day
same,NOAEL,"Rattus norvegicus; subchronic, oral, hematological",0.76 mg/kg-day
same,NOEC,Folsomia candida,1 mg/kg
